A melting point compilation (Tetko et al.; mined from patent text by program, amines drawn as free bases though some values may be those of a salt)

| Structure (SMILES) | melting point [°C] |
| --- | --- |
| COCCOc1nc(NC(C)=O)nc2ccc(Cl)nc12 | 135 |
| Cc1nc(N2N=C(c3ccc([N+](=O)[O-])cc3)c3cc4c(cc3CC2C)OCO4)no1 (stereo not given) | 191 to 200 |
| Clc1cccc(-c2nc3ccccn3c2-c2ccnc(-c3ccc(OCCN4CCCC4)cc3)c2)c1 | 298 |
| Cn1nc(C(F)F)c(C=O)c1F | 68 |
| CCOC(=O)COc1ccc(N)cc1Cl | 59 to 62 |
| CCOc1cc(NC(=O)NS(=O)(=O)c2ccc(C)cc2)cc(OCC)n1 | > 270 |
| CCOC(=O)C(OCC)(OCC)C(=O)c1cccc2snnc12 | 123 to 125 |
| Cc1cncc(-c2nc3cc(NC(=O)c4c(C(=O)N5CCC5)cnn4C)ccn3n2)c1 | 262 to 264 |
| CCCCCCCCCCCCCCOc1ccc(C(=O)OC)cc1 | 56 to 58 |
| COc1ccc(S(=O)(=O)Nc2cccnc2Nc2cccc(F)c2)cc1 | 180 to 181 |
| O=C(O)c1cc(C(F)(F)F)ccc1OCc1ccccc1 | 94 to 95 |
| O=C(O)c1cn(-c2nnc(C(F)(F)F)s2)c2nc(Cl)c(F)cc2c1=O | 232 to 237 |
| Cc1cc(NC(=O)C(C)(C)Sc2ccc(Cl)cc2)c(C)c(C)c1O | 134 |
| CCC(CC)n1c(=O)n(C)c2c(Oc3c(C)cc(C)cc3C)nc(C)cc21 | 152 to 154 |
| O=C1CNc2cc(Cl)ccc2N1 | 171 to 174 |
| CCCCCCCCCCCCc1nnn(C(CCCC)C(=O)Nc2c(OC)cc(OC)cc2OC)n1 (stereo not given) | 152 to 154 |
| C=CCOC(=O)Nc1cc(-c2cccc(Cl)c2)sc1C(C)(C)O | 60 to 61 |
| CCn1c2ccccc2c2cc(-n3c(CC(=O)O)c(C(=O)O)c4cc(Oc5ccc(C(F)(F)F)cc5)ccc43)ccc21 | 243 to 245 |
| COc1nc(N(C)C)nc(CCCCCCCCCCO)c1O | 104 to 105 |
| COC(=O)Cn1c(C(=O)NC(N)=S)cc2cc(OC)ccc21 | 202 to 206 |

| Structure (SMILES) | melting point [°C] |
| --- | --- |
| CN1CCN2CCCOC2(c2ccccc2)c2cc(Cl)ccc21 (stereo not given) | 142 to 144 |
| COc1ccc(Cl)cc1C(=O)NCc1ccc(-c2ccc(OC(C)(C)CO)cc2)cc1 | 109 |
| O=c1[nH]cc(-c2ccccc2)c2ncccc12 | 260 to 263 |
| O=C(C1NCCc2occc21)N1CCCC1 (stereo not given) | 85 to 86 |
| COc1ccc(N(C(=O)Nc2cc(C)c(S(=O)(=O)C[N+](=O)[O-])c(C)c2)c2ccc(OC)cc2)cc1 | 150 to 151 |
| CCOCc1nc2cnc3ccc(OCc4ccccc4)cc3c2n1CC(C)(C)O | 138 to 140 |
| CC(C(=O)NCCCCn1cnc2c(N)nc3ccccc3c21)c1ccc(-c2ccccc2)c(F)c1 (stereo not given) | 76.1 to 79.9 |
| O=c1c2ccc(Cl)cc2nc2n1CS(=O)(=O)N2 | > 300 |
| CCCCc1nc(Cl)c(CC#N)n1Cc1ccc([N+](=O)[O-])cc1 | 118 to 121 |
| Nc1nc2ccccc2c2c1nc(-c1ccccc1)n2OCc1ccccc1 | 177 to 179 |
| C[C@@H]1OC(=O)[C@H]2C[C@H]3CCCC[C@@H]3[C@@H](O)[C@@H]12 | 195 to 196 |
| CCOC(=O)c1cn(CC)c2cc(N3CCNCC3)c(F)cc2c1=O | 178 to 180 |
| COc1cc2c(cc1C)C1(CO2)C(=O)Nc2ccccc21 (stereo not given) | > 250 |
| COc1cc(C(C)=O)ccc1OCCCCCCl | 57 to 58 |
| COc1cc(OC)c(N2CCCC2)cc1/C=C/C(=O)c1ccc(S(N)(=O)=O)cc1 | 220 to 222 |
| CC1C(NC(=O)OCc2ccccc2)C(=O)N1OCC(=O)OC(C)(C)C (stereo not given) | 30 |
| N#Cc1cc(C=NO)ccc1-n1cncn1 | 198 to 200 |
| CC(C)c1ccc(CCC(O)(P(=O)(O)O)P(=O)(O)O)cc1 | 174 |
| CS(=O)(=O)c1nnc(-c2ccnc(Nc3cccc(C(F)(F)F)c3)c2)o1 | 105 to 106 |
| Cc1ccc(N2C(=O)C(O)=C(C(=O)c3ccc(C(C)C)cc3)C2c2ccc(OC(C)(C)C)cc2)nn1 (stereo not given) | 276 to 277 |
